Source: US20220315558A1, “POLYMORPHS OF 1-(2-((((TRANS)-3-FLUORO-1-(3-FLUOROPYRIDIN-2-YL)CYCLOBUTYL)METHYL)AMINO)PYRIMIDIN-5-YL)-1H-PYRROLE-3-CARBOXAMIDE” (Cytokinetics, Inc., priority 2019, published 2022)

Experiments:
Assay type in all cases: physicochemical
[1] = Competitive slurry experiments between Form I and Form II; conditions: methanol, constant temperature 4 to 60° C., 12 days, XRPD
Description: (§1) A mechanical mixture of Form I and Form II was prepared. This mixture was analyzed by XRPD for reference. The mixture (ca. 25 mg) was suspended in methanol, and parallel maturation experiments were set up at a constant temperature, in the range of 4 to 60° C., for a total of 12 days. The resulting solids were filtered and analyzed by XRPD.

[2] = Solubility of Form I in solvents at 50° C. (polymorph screening); set-up: key: ✓ YES; x NO
Description: Polymorphic Form I of 1-(2-((((trans)-3-fluoro-1-(3-fluoropyridin-2-yl)cyclobutyl)methyl)amino)pyrimidin-5-yl)-1H-pyrrole-3-carboxamide was weighed into vials, and the stated solvents were added, in increasing portions, at 50° C. With each addition, the vials were allowed to shake for ˜20 minutes. After the last addition, any suspensions observed were subjected to heat/cool cycles, between room temperature and 50° C., 4 hours at each condition, for 1 week. Solutions were allowed to slowly evaporate.
Aliquots were filtered by suction after 7 days maturation and analysed by XRPD (low resolution, air-dried only). Most solutions yielded solids after 9 days and these were analyzed by XRPD as well.

[3] = Storage stability for 7 days at controlled temperature/RH, checked by XRPD
Description: Ray Powder Diffraction patterns were collected on a Bruker D8 diffractometer using Cu Kα radiation (40 kV, 40 mA), θ-2θ goniometer, and divergence of V4 and receiving slits, a Ge monochromator and a Lynxeye detector. The instrument is performance checked using a certified Corundum standard (NIST 1976). The software used for data collection was Diffrac Plus XRD Commander v2.6.1 and the data were analysed and presented using Diffrac Plus EVA v13.0.0.2 or v15.0.0.0.
Samples were run under ambient conditions as flat plate specimens using powder as received. The sample was gently packed into a cavity cut into polished, zero-background (510) silicon wafer. The sample was rotated in its own plane during analysis. The details of the data collection are: • Angular range: 2 to 42° 2θ • Step size: 0.05° 2θ • Collection time: 0.5 s/step
Polymorphic Form I of 1-(2-((((trans)-3-fluoro-1-(3-fluoropyridin-2-yl)cyclobutyl)methyl)amino)pyrimidin-5-yl)-1H-pyrrole-3-carboxamide was analyzed by XRPD, DSC, TGA, and GVS. […] Chemical stability study of Form I was also performed. XRPD patterns were measured after storage of samples of Form I for 7 days at 40° C./75% RH and 25° C./97% RH.

[4] = Gravimetric Vapour Sorption (GVS) moisture sorption isotherm; conditions: over 0-90% RH range, 25° C.
Description: GVS data were collected using a SMS DVS Intrinsic moisture sorption analyser, controlled by DVS Intrinsic Control software v1.0.0.30. The sample temperature was maintained at 25° C. by the instrument controls. The humidity was controlled by mixing streams of dry and wet nitrogen, with a total flow rate of 200 ml/min The relative humidity was measured by a calibrated Rotronic probe (dynamic range of 1.0-100% RH), located near the sample. The weight change, (mass relaxation) of the sample as a function of % RH was constantly monitored by the microbalance (accuracy ±0.005 mg).
Typically 5-20 mg of sample was placed in a tared mesh stainless steel basket under ambient conditions. The sample was loaded and unloaded at 40% RH and 25° C. (typical room conditions). A moisture sorption isotherm was performed as outlined below (2 scans giving 1 complete cycle). The standard isotherm was performed at 25° C. at 10% RH intervals over a 0-90% RH range. Data analysis was undertaken in Microsoft Excel using DVS Analysis Suite v6.0.

[5] = Competitive slurry experiments between Form I and Form IV; conditions: as Example 3 (methanol, 4 to 60° C.), 12 days, XRPD
Description: as §1
Competitive slurry experiments between Form I and Form IV were conducted in a manner similar to that described in Example 3.

[6] = XRPD analysis after heating at 150° C.
Description: Polymorphic Form II of 1-(2-((((trans)-3-fluoro-1-(3-fluoropyridin-2-yl)cyclobutyl)methyl)amino)pyrimidin-5-yl)-1H-pyrrole-3-carboxamide was analyzed by XRPD, DSC, TGA, and GVS.

[7] = Competitive slurry experiments between Form I and Form V; conditions: XRPD
Description: For competitive slurry experiments, a mixture of Form I (˜10 mg) and Form V (˜10 mg) were suspended in 20 volumes of ethanol or methanol. Parallel maturation experiments were set up at a constant temperature, in the range of 4° C. to 60° C. for 9-12 days, the resulting solids (rapidly isolated by solvent decantation) were analyzed by XRPD. A mechanical mixture of Form I and Form V in equivalent weight was also analyzed by XRPD for reference. For the control experiments, slurries of Form I or Form V were subjected to the same conditions as in the competitive slurry experiments.
In an attempt to determine a transition temperature for the polymorph pair, a further four competitive slurry experiments were performed at a higher temperature range of 65-75° C. Using sealed vials, Form I (˜10 mg) and Form V (˜10 mg) were suspended in 20 volumes of ethanol or methanol and maturation continued for 2 days.

NC(=O)c1ccn(-c2cnc(NC[C@]3(c4ncccc4F)C[C@H](F)C3)nc2)c1 [Form I, 1-(2-((((trans)-3-fluoro-1-(3-fluoropyridin-2-yl)cyclobutyl)methyl)amino)pyrimidin-5-yl)-1H-pyrrole-3-carboxamide]
more stable: relative stability versus Form II (competitive slurry) [1] | relative stability versus Form IV (competitive slurry) [5]
✓: Solubility (volumes) (✓ YES; x NO) at 50° C. ([2]; Acetonitrile, 10 volumes) | Solubility (volumes) (✓ YES; x NO) at 50° C. ([2]; Dioxane/5% water, 50 volumes) | Solubility (volumes) (✓ YES; x NO) at 50° C. ([2]; THF/5% water, 50 volumes)
No visible changes: changes in XRPD pattern after storage ([3]; 7 days at 25° C./97% RH) | changes in XRPD pattern after storage ([3]; 7 days at 40° C./75% RH)
Cloudy: Solubility (volumes) (✓ YES; x NO) at 50° C. ([2]; THF/5% water, 25 volumes)
less than 0.07%: moisture uptake as determined by GVS [4]
x: Solubility (volumes) (✓ YES; x NO) at 50° C. ([2]; 1,4-Dioxane, 10 volumes) | Solubility (volumes) (✓ YES; x NO) at 50° C. ([2]; 1,4-Dioxane, 25 volumes) | Solubility (volumes) (✓ YES; x NO) at 50° C. ([2]; 1,4-Dioxane, 50 volumes) | Solubility (volumes) (✓ YES; x NO) at 50° C. ([2]; 1-Butanol, 10 volumes) | Solubility (volumes) (✓ YES; x NO) at 50° C. ([2]; 1-Butanol, 25 volumes) | Solubility (volumes) (✓ YES; x NO) at 50° C. ([2]; 1-Butanol, 50 volumes) | Solubility (volumes) (✓ YES; x NO) at 50° C. ([2]; 1-Propanol, 10 volumes) | Solubility (volumes) (✓ YES; x NO) at 50° C. ([2]; 1-Propanol, 25 volumes) | Solubility (volumes) (✓ YES; x NO) at 50° C. ([2]; 1-Propanol, 50 volumes) | Solubility (volumes) (✓ YES; x NO) at 50° C. ([2]; 2-Propanol, 10 volumes) | Solubility (volumes) (✓ YES; x NO) at 50° C. ([2]; 2-Propanol, 25 volumes) | Solubility (volumes) (✓ YES; x NO) at 50° C. ([2]; 2-Propanol, 50 volumes) | Solubility (volumes) (✓ YES; x NO) at 50° C. ([2]; Acetone, 10 volumes) | Solubility (volumes) (✓ YES; x NO) at 50° C. ([2]; Acetone, 25 volumes) | Solubility (volumes) (✓ YES; x NO) at 50° C. ([2]; Acetone, 50 volumes) | Solubility (volumes) (✓ YES; x NO) at 50° C. ([2]; Anisole, 10 volumes) | Solubility (volumes) (✓ YES; x NO) at 50° C. ([2]; Anisole, 25 volumes) | Solubility (volumes) (✓ YES; x NO) at 50° C. ([2]; Anisole, 50 volumes) | Solubility (volumes) (✓ YES; x NO) at 50° C. ([2]; Butyl acetate (BuOAc), 10 volumes) | Solubility (volumes) (✓ YES; x NO) at 50° C. ([2]; Butyl acetate (BuOAc), 25 volumes) | Solubility (volumes) (✓ YES; x NO) at 50° C. ([2]; Butyl acetate (BuOAc), 50 volumes) | Solubility (volumes) (✓ YES; x NO) at 50° C. ([2]; Dichloromethane (DCM), 10 volumes) | Solubility (volumes) (✓ YES; x NO) at 50° C. ([2]; Dichloromethane (DCM), 25 volumes) | Solubility (volumes) (✓ YES; x NO) at 50° C. ([2]; Dichloromethane (DCM), 50 volumes) | Solubility (volumes) (✓ YES; x NO) at 50° C. ([2]; Dioxane/5% water, 10 volumes) | Solubility (volumes) (✓ YES; x NO) at 50° C. ([2]; Dioxane/5% water, 25 volumes) | Solubility (volumes) (✓ YES; x NO) at 50° C. ([2]; Ethanol, 10 volumes) | Solubility (volumes) (✓ YES; x NO) at 50° C. ([2]; Ethanol, 25 volumes) | Solubility (volumes) (✓ YES; x NO) at 50° C. ([2]; Ethanol, 50 volumes) | Solubility (volumes) (✓ YES; x NO) at 50° C. ([2]; Ethanol/5% water, 10 volumes) | Solubility (volumes) (✓ YES; x NO) at 50° C. ([2]; Ethanol/5% water, 25 volumes) | Solubility (volumes) (✓ YES; x NO) at 50° C. ([2]; Ethanol/5% water, 50 volumes) | Solubility (volumes) (✓ YES; x NO) at 50° C. ([2]; Ethyl acetate, 10 volumes) | Solubility (volumes) (✓ YES; x NO) at 50° C. ([2]; Ethyl acetate, 25 volumes) | Solubility (volumes) (✓ YES; x NO) at 50° C. ([2]; Ethyl acetate, 50 volumes) | Solubility (volumes) (✓ YES; x NO) at 50° C. ([2]; Heptane, 10 volumes) | Solubility (volumes) (✓ YES; x NO) at 50° C. ([2]; Heptane, 25 volumes) | Solubility (volumes) (✓ YES; x NO) at 50° C. ([2]; Heptane, 50 volumes) | Solubility (volumes) (✓ YES; x NO) at 50° C. ([2]; Isopropanol (IPA)/5% water, 10 volumes) | Solubility (volumes) (✓ YES; x NO) at 50° C. ([2]; Isopropanol (IPA)/5% water, 25 volumes) | Solubility (volumes) (✓ YES; x NO) at 50° C. ([2]; Isopropanol (IPA)/5% water, 50 volumes) | Solubility (volumes) (✓ YES; x NO) at 50° C. ([2]; Isopropyl acetate (IPAc), 10 volumes) | Solubility (volumes) (✓ YES; x NO) at 50° C. ([2]; Isopropyl acetate (IPAc), 25 volumes) | Solubility (volumes) (✓ YES; x NO) at 50° C. ([2]; Isopropyl acetate (IPAc), 50 volumes) | Solubility (volumes) (✓ YES; x NO) at 50° C. ([2]; Methanol, 10 volumes) | Solubility (volumes) (✓ YES; x NO) at 50° C. ([2]; Methanol, 25 volumes) | Solubility (volumes) (✓ YES; x NO) at 50° C. ([2]; Methanol, 50 volumes) | Solubility (volumes) (✓ YES; x NO) at 50° C. ([2]; Methyl ethyl ketone (MEK), 10 volumes) | Solubility (volumes) (✓ YES; x NO) at 50° C. ([2]; Methyl ethyl ketone (MEK), 25 volumes) | Solubility (volumes) (✓ YES; x NO) at 50° C. ([2]; Methyl ethyl ketone (MEK), 50 volumes) | Solubility (volumes) (✓ YES; x NO) at 50° C. ([2]; Methyl isobutyl ketone (MIBK), 10 volumes) | Solubility (volumes) (✓ YES; x NO) at 50° C. ([2]; Methyl isobutyl ketone (MIBK), 25 volumes) | Solubility (volumes) (✓ YES; x NO) at 50° C. ([2]; Methyl isobutyl ketone (MIBK), 50 volumes) | Solubility (volumes) (✓ YES; x NO) at 50° C. ([2]; Nitromethane, 10 volumes) | Solubility (volumes) (✓ YES; x NO) at 50° C. ([2]; Nitromethane, 25 volumes) | Solubility (volumes) (✓ YES; x NO) at 50° C. ([2]; Nitromethane, 50 volumes) | Solubility (volumes) (✓ YES; x NO) at 50° C. ([2]; THF/5% water, 10 volumes) | Solubility (volumes) (✓ YES; x NO) at 50° C. ([2]; Tert-butyl methyl ether (TBME), 10 volumes) | Solubility (volumes) (✓ YES; x NO) at 50° C. ([2]; Tert-butyl methyl ether (TBME), 25 volumes) | Solubility (volumes) (✓ YES; x NO) at 50° C. ([2]; Tert-butyl methyl ether (TBME), 50 volumes) | Solubility (volumes) (✓ YES; x NO) at 50° C. ([2]; Tetrahydrofuran (THF), 10 volumes) | Solubility (volumes) (✓ YES; x NO) at 50° C. ([2]; Tetrahydrofuran (THF), 25 volumes) | Solubility (volumes) (✓ YES; x NO) at 50° C. ([2]; Tetrahydrofuran (THF), 50 volumes) | Solubility (volumes) (✓ YES; x NO) at 50° C. ([2]; Toluene, 10 volumes) | Solubility (volumes) (✓ YES; x NO) at 50° C. ([2]; Toluene, 25 volumes) | Solubility (volumes) (✓ YES; x NO) at 50° C. ([2]; Toluene, 50 volumes) | Solubility (volumes) (✓ YES; x NO) at 50° C. ([2]; Water, 10 volumes) | Solubility (volumes) (✓ YES; x NO) at 50° C. ([2]; Water, 25 volumes) | Solubility (volumes) (✓ YES; x NO) at 50° C. ([2]; Water, 50 volumes)

NC(=O)c1ccn(-c2cnc(NC[C@]3(c4ncccc4F)C[C@H](F)C3)nc2)c1 [Form II, 1-(2-((((trans)-3-fluoro-1-(3-fluoropyridin-2-yl)cyclobutyl)methyl)amino)pyrimidin-5-yl)-1H-pyrrole-3-carboxamide]
about 1.65%: moisture uptake as determined by GVS [4]
converted to Form I: solid form by XRPD after heating [6]

NC(=O)c1ccn(-c2cnc(NC[C@]3(c4ncccc4F)C[C@H](F)C3)nc2)c1 [Form V, 1-(2-((((trans)-3-fluoro-1-(3-fluoropyridin-2-yl)cyclobutyl)methyl)amino)pyrimidin-5-yl)-1H-pyrrole-3-carboxamide]
mixture of both forms: solid form obtained from Form I/Form V competitive slurry ([7]; methanol, 65° C., 2 days, sealed vials)
more stable: relative stability versus Form I (competitive slurry) ([7]; ethanol, 4° C. to 60° C., 9-12 days) | relative stability versus Form I (competitive slurry) ([7]; methanol, 4° C. to 60° C., 9-12 days)
less than 0.05%: moisture uptake as determined by GVS [4]
more stable form: relative stability versus Form I (competitive slurry) ([7]; ethanol, 65-75° C., 2 days, sealed vials)
